Data as given in US8377963B2, “Insulin-regulated aminopeptidase (IRAP) inhibitors and uses thereof” (Howard Florey Institute, priority 2007, dated 2013).

Experiments:
Recombinant human LTA4H = molecular target: T1, Recombinant human LTA4H (Homo sapiens, UniProt P09960); experiment: Leukotriene A4 hydrolase assay; assay type: biochemical; details: 100 μM; read-out: % inhibition of the catalytic activity of the enzyme
T1 construct: purchased Cayman Chemicals
T1 sequence (P09960 1-611): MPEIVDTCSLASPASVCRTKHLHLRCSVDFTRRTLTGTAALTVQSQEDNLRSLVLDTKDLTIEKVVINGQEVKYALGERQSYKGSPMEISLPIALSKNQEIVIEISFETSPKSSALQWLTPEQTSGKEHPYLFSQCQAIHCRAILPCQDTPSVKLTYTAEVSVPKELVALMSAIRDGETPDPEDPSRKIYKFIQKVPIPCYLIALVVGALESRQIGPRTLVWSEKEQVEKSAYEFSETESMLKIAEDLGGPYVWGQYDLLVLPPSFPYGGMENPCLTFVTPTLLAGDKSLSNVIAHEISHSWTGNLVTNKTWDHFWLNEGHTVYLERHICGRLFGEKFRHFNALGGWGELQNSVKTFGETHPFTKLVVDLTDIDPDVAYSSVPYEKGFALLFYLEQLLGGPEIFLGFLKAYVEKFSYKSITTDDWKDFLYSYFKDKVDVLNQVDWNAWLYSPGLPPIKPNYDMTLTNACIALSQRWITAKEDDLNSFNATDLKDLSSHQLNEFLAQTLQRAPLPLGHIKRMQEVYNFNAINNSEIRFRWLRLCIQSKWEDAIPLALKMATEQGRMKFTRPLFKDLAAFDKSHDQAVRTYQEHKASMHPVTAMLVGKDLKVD
Method: Leukotriene A4 hydrolase assay. Recombinant human LTA4H (Cayman Chemicals Michigan USA) (1-20 μg) was incubated at room temperature with alanine-p-nitroanilide as substrate in 50 mM Tris-HCl buffer, pH 8.0, containing 100 mM KCl with or without increasing concentrations of an inhibitor. The absorbance at 405 nm was measured at 10 min intervals.
(§1) Limited inhibition of control enzymes was observed.

[1] = molecular target: Angiotensin converting enzyme 1 (Homo sapiens, UniProt P12821); experiment: Angiotensin converting enzyme assay; assay type: biochemical; details: read-out: % inhibition of the catalytic activity of the enzyme
Method: Angiotensin converting enzyme assay. The enzyme (final concentration 0.02 pmol/100 L) was incubated with 200 μL of assay solution that included 5 mmol/L HHL in 100 mmol/L potassium buffer (pH 8.3) that contained 300 mmol/L NaCl and 10^−4 mol/L ZnSO4 for 3 hours at 37° C. The enzymatic reaction was stopped by the addition of 1.5 mL of 0.28N NaOH, 100 μL of o-phthaldialdehyde (20 mg/mL) in methanol was added and the fluorescent reaction stopped by the addition of 200 μL of 3N HCl. The product, L-His-Leu, was measured fluorometrically (360 nm excitation and 500 nm emission).
as §1

rats [2] = experiment: Spontaneous alternation plus maze; assay type: in vivo, rat; details: for Spontaneous Alternation Score (%): rats, n=8/group
Method: (§2) All experiments were performed according to the National Health and Medical Research Council of Australia “Code of practise for the care and use of animals for scientific purposes”. Male Spraque Dawley rats, (250-270 g) are housed individually and given water and standard rat chow ad libitum. On the day of surgery, the rats were anaesthetized with 5% isofluorane, placed in a stereotaxic frame and maintained on 2% isofluorane for the duration of the cannula implantation procedure. The rats were stereotaxically implanted with chronic indwelling cannula (Plastics One) into the cerebral lateral ventricles using the following flat skull coordinates 0.8 mm posterior to Bregma, 1.55 mm lateral to midline and 3.5 mm ventral to the dura. The cannula was then secured to the skull with stainless steel screws and dental cement. Seven days following surgery, proper cannula placement was verified by a bolus injection of angiotensin II (1 nmol/μl).
The plus maze was composed of four arms with each arm measuring 75×10×20 cm. The floor and walls of the central platform and the floors of the arms were made of black plastic. Spontaneous alternation testing was conducted by placing the rat on the center platform of the maze and allowing 20 min of unimpeded exploration. The number and sequence of arm entries were recorded for calculation of a percent alternation score. An alternation consisted of 4 different arm choices of 5 consecutive arm entries. A ⅘ alternation score was computed by dividing the number of observed alternations in overlapping quintuplets by the number of possible alternations and multiplying the quotient by 100.

rats [3] = experiment: Locomotor cell activity; assay type: in vivo, rat; details: 30 mins; for Distance travelled (% control): rats, n=8 per group
Method: as §2
Locomotor activity of rats treated with 1 nmol Compound 2 intracerebrocentricularly was monitored in special cages measuring 40×40×40 cm (Coulbourn Instruments, Philadelphia, USA) equipped with harmless infrared photobeams. Activity was measured when pairs of photobeams spaced 2.54 cm apart providing a 1.27 cm spatial resolution were crossed. Data was collected and analysed using TruScan Photo Beam Activity system (Coulbourn Instruments, Philadelphia, USA). Each rat was placed in the arena for 30 min.

hippocampal slices = experiment: Hippocampal glucose uptake assay; assay type: cell-based; details: rat hippocampal slices
Method: Hippocampal glucose uptake assay. Eight week old male Spraque-Dawley rats were deeply anaesthetised with Isofluorothane and killed by decapitation. The brains were rapidly removed and placed into ice-cold, 95% O2, 5% CO2-bubbled artificial cerebrospinal fluid (aCSF: 124 mM NaCl, 2.5 mM KCl, 2 mM CaCl2, 2 mM MgSO4, 26 mM NaHCO3, 1.25 mM NaH2 PO4 pH 7.4) supplemented with 10 mM D-glucose (Sigma). Under aCSF, the hippocampal hemispheres were rapidly dissected out and 200 μm slices prepared on McIllwain tissue chopper with an ice-cold blade and stage. Slices from each hemisphere were kept together and transferred to freshly 95% O2, 5% CO2-bubbled aCSF supplemented with 10 mM D-glucose at 37° C. for 1 hour. All subsequent steps were carried out at 37° C. in a gently shaking chamber with continuous infusion of 95% O2, 5% CO2. Slices from one hemisphere were used as a basal control while slices from the other hemisphere were stimulated, providing an internal control for each animal. […] Tritium content was measured in a Liquid Scintillation Analyser 1900TR (Perkin Elmer, MA, USA).

[4] = test system: Glucose-6-phosphate dehydrogenase/glucose hexokinase; experiment: Glucose-6-phosphate dehydrogenase and hexokinase activity, fluorimetric assay; details: 100 μM
Method: Glucose-6-phosphate dehydrogenase and hexokinase activity. Glucose-6-phosphate dehydrogenase and hexokinase activity in the absence and presence of the compounds was determined in a fluorimetric assay. Ten mM Tris MgCl2 buffer (total volume of 200 ml) containing glucose-6-phosphate dehydrogenase, 0.3M ATP, 30 mM NADP+ was added to 96 well microtitre plate together with 20 μl of compound, a reading at excitation 350 nm and emission 510 nm was taken followed by the addition of hexokinase and another reading.

[5] = 0.1 nmol intracerebroventricularly
[6] = 1 nmol intracerebroventricularly

Chain of Angiotensin converting enzyme 1 (P12821 30-1306): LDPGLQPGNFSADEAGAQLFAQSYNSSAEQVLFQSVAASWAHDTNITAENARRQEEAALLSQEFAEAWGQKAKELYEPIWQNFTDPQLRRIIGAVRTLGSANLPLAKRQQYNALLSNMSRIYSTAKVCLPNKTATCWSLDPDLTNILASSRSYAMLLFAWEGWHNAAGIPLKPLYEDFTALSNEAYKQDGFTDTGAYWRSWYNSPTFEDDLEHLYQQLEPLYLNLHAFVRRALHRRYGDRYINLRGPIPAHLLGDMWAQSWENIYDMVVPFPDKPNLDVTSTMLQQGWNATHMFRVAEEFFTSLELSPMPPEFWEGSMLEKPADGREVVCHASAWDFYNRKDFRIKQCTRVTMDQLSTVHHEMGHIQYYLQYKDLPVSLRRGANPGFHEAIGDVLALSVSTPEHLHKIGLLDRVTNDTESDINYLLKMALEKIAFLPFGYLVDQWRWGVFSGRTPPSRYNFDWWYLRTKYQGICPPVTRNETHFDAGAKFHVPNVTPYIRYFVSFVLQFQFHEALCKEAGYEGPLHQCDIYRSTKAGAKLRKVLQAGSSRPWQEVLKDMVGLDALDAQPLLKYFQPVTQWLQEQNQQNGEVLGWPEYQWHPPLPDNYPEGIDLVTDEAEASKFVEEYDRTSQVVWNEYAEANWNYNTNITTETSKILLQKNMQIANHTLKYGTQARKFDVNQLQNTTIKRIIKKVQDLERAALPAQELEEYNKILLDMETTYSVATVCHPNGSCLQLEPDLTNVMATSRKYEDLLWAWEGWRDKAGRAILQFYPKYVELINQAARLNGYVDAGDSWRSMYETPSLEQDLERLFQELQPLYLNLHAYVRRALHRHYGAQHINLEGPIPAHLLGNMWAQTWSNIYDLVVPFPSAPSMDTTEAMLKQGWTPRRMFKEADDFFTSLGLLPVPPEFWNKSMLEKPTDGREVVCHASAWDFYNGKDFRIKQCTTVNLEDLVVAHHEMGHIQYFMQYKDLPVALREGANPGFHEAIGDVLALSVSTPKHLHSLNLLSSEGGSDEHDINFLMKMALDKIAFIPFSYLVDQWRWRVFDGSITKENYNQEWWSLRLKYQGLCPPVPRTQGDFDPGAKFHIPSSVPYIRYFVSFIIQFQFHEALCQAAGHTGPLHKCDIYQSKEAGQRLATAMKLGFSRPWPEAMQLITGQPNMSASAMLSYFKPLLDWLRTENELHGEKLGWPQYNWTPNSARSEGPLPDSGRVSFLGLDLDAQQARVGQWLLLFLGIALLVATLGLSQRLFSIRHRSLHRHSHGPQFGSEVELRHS

CCOC(=O)C1=C(NC(C)=O)Oc2cc(O)ccc2C1c1cccnc1 (stereo not drawn) [Compound 2, Ethyl 2-(acetylamino)-7-hydroxy-4-pyridin-3-yl-4H-chromene-3-carboxylate]
inhibition at 100 µM (Recombinant human LTA4H): 0%
inhibition at 10 µM ([1]; 10 μM): 9%
inhibition at 100 µM ([1]; 100 μM): 3%
Spontaneous Alternation Score (%) (rats [2]; [5]): 73.70 ± 3.14 %
spontaneous alternation scores compared to vehicle treated control rats (rats [2]; 0.1 nmole, p<0.01): significantly enhanced spontaneous alternation scores
Spontaneous Alternation Score (%) (rats [2]; [6]): 64.34 ± 2.49%
Distance travelled (% control) (rats [3]; [5]): 85.12 ± 12.99 % control
Distance travelled (% control) (rats [3]; [6]): 90.16 ± 6.73 % control
locomotor activity compared to vehicle, by crossing of infrared beams and total distance travelled (rats [3]; 0.1 and 1 nmol intracerebroventricularly): did not exhibit increased or decreased locomotor activity
Fold change in 3H-2DOG uptake (hippocampal slices; dbcAMP & compound versus dbcAMP alone (=1), 100 nM): 1.7
dibutyryl cAMP-evoked glucose uptake (hippocampal slices): increase in dibutyryl cAMP-evoked glucose uptake
% inhibition of the catalytic activity of the enzyme [4]: 0%
